Laboratory results reported in ChEMBL document CHEMBL1148672, “Mimicking the biological activity of diazobenzo[b]fluorene natural products with electronically tuned diazofluorene analogs” (2006).
The source made the active and inactive calls. The calls are words filed in the database; no cut-off is given here.

Key:
[1] = test system: Nucleic Acid; test: Conversion of type 1 supercoiled DNA to type 2 nicked DNA; format: nucleic-acid assay; parameters: concentration or dose not given beside the values
[2] = test system: Nucleic Acid; test: Conversion of type 1 supercoiled DNA to type 2 nicked DNA in presence of dithiothreitol; format: nucleic-acid assay; parameters: concentration or dose not given beside the values
[3] = test system: Nucleic Acid; test: Cleavage of supercoiled DNA plasmid pBR322 after 2 days; format: nucleic-acid assay
[4] = test system: Nucleic Acid; test: Conversion of type 1 supercoiled DNA to type 2 nicked DNA in presence of dithiothreitol relative to Kinamycin D; format: nucleic-acid assay
[5] = test system: Nucleic Acid; test: Cleavage of supercoiled DNA plasmid pBR322 after 2 days in presence of dithiothreitol; format: nucleic-acid assay
[6] = test system: Nucleic Acid; test: Cleavage of supercoiled DNA plasmid pBR322 after 2 days in presence of NADPH; format: nucleic-acid assay
[7] = test system: Nucleic Acid; test: Cleavage of supercoiled DNA plasmid pBR322 after 2 days in presence of sodium cyanide; format: nucleic-acid assay
[8] = test system: HeLa; test: Antiproliferative activity against HeLa cells at 100 nM after 12 hrs; format: functional; conditions: Homo sapiens
[9] = test system: HeLa; test: Antiproliferative activity against HeLa cells at 100 nM; format: functional, cell-based; conditions: Homo sapiens

Activity [1]	Activity [2]	Activity [3]	SMILES	also measured
< 5%	< 5%		[N-]=[N+]=C1c2ccccc2-c2c(Cl)cccc21	
< 5%	< 5%		[N-]=[N+]=C1c2ccccc2-c2cccc([N+](=O)[O-])c21	
< 5%	9%		COc1ccc(OC)c2c1C(=[N+]=[N-])c1ccccc1-2	
< 5%	13%		COc1cccc2c1-c1ccccc1C2=[N+]=[N-]	
		inactive	COc1cccc2c1C(=O)c1ccccc1-2	
< 5%	< 5%		[N-]=[N+]=C1c2ccccc2-c2ccccc21	
44%	18%	Active	[N-]=[N+]=C1c2ccccc2-c2c(N)cccc21	Activity [4]: 64%; Activity [5]: Active
< 5%	< 5%		[N-]=[N+]=C1c2ccccc2-c2c1cccc2[N+](=O)[O-]	
< 5%	< 5%		[N-]=[N+]=C1c2ccccc2-c2cccc(Cl)c21	
		inactive	Nc1cccc2c1-c1ccccc1C2=O	
< 5%	28%	inactive	CC(=O)O[C@@H]1c2c(c3c(=O)c4cccc(O)c4c(=O)c=3c2=[N+]=[N-])[C@H](O)[C@@H](OC(C)=O)[C@]1(C)O	Activity [5]: Time-dependent effect
11%	41%		COc1cccc2c1C(=[N+]=[N-])c1ccccc1-2	Activity [6]: inactive; Activity [7]: inactive; Activity [4]: 150%; inhibition at 0.1 µM [8]: 35%; Activity [9]: Time-dependent effect
< 5%	10%		[N-]=[N+]=c1c2c(=O)ccc(=O)c=2c2ccccc12	
